Where a name gives a salt, the structure may show the parent alone.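 Interpolation was linear, between the two tested concentrations surrounding the appropriate level; five concentrations were tested over 48 hours in 96-well plates. Abbreviation: GI50, concentration required for 50% inhibition of growth.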 Calls of active or inactive are those of the source. Cut-off read from the data, not from the text of the source: active = GI50 up to about 1.1 µM and inactive = higher.
Legend:
Assay in all cases: NCI-60 cell line screen, 48 h
DLD-1 = system: DLD-1
DMS-114 = system: DMS-114
HOP-18 = system: HOP-18
M19-MEL = system: M19-MEL
RXF 631 = system: RXF 631
SNB-78 = system: SNB-78
KM-20L2 = system: KM-20L2
LXFL 529 = system: LXFL 529
XF498 = system: XF498

Structure (SMILES)	GI50 (DLD-1)	GI50 (DMS-114)	GI50 (HOP-18)	GI50 (M19-MEL)	GI50 (RXF 631)	GI50 (SNB-78)	GI50 (KM-20L2)	GI50 (LXFL 529)	GI50 (XF498)
O=C1CCC(=O)C1=NNc1cc(Cl)cc(Cl)c1	> 100 µM (inactive)	98.2 µM (inactive)	> 100 µM (inactive)	> 100 µM (inactive)	> 100 µM (inactive)	> 100 µM (inactive)			
O=c1[nH]c(C2CCCCC2)nc2c(Cl)cccc12	> 100 µM (inactive)	> 100 µM (inactive)	> 100 µM (inactive)	> 100 µM (inactive)		> 100 µM (inactive)	> 100 µM (inactive)	> 100 µM (inactive)	> 100 µM (inactive)
O=C(Nc1ccccc1[N+](=O)[O-])/C(=N/Nc1cccc(Cl)c1)c1c(O)c2ccccc2oc1=O	49.3 µM (inactive)	16.2 µM (inactive)	> 100 µM (inactive)	> 100 µM (inactive)			> 100 µM (inactive)	31 µM (inactive)	
O=c1[nH]c(=O)n(C2CC(O)C(CO)O2)cc1C(F)(C(F)(F)F)C(F)(F)F (centres undefined)	> 100 µM (inactive)	> 100 µM (inactive)	84.5 µM (inactive)	> 100 µM (inactive)		> 100 µM (inactive)	> 100 µM (inactive)	> 100 µM (inactive)	> 100 µM (inactive)
CNC1C(O)CC(OC2C/C=C(\C)C/C(C)=C/C=C/CCC(C)CNC(=O)/C=C/C=C/C2C)OC1C (centres undefined)	0.26 µM (active)	0.463 µM (active)	1.77 µM (inactive)	0.714 µM (active)	0.206 µM (active)	1.66 µM (inactive)	0.63 µM (active)	0.14 µM (active)	1.68 µM (inactive)
COC(=O)OCC1OC(N2C(=O)NC(=O)C(I)C2N=[N+]=[N-])CC1OC(=O)OC (centres undefined)	> 100 µM (inactive)			> 100 µM (inactive)	> 100 µM (inactive)	> 100 µM (inactive)	> 100 µM (inactive)	> 100 µM (inactive)	> 100 µM (inactive)
CN(C)c1ccc(/C=c2\sc3nnc(-c4ccco4)n3c2=O)cc1	> 100 µM (inactive)	> 100 µM (inactive)	> 100 µM (inactive)	> 100 µM (inactive)	> 100 µM (inactive)	> 100 µM (inactive)	> 100 µM (inactive)	> 100 µM (inactive)	> 100 µM (inactive)
O=C1CSc2ccncc2N1	> 100 µM (inactive)	> 100 µM (inactive)		> 100 µM (inactive)			> 100 µM (inactive)	> 100 µM (inactive)	> 100 µM (inactive)
COc1nc(NC2OC(COC(C)=O)C(OC(C)=O)C(OC(C)=O)C2OC(C)=O)c2c(OC(C)=O)c(C)c(=O)oc2n1 (centres undefined)	> 100 µM (inactive)	> 100 µM (inactive)	> 100 µM (inactive)	> 100 µM (inactive)		> 100 µM (inactive)	> 100 µM (inactive)	> 100 µM (inactive)	> 100 µM (inactive)
OCC(CO)C1c2cccc3ccc4cccc1c4c23	> 100 µM (inactive)	> 100 µM (inactive)	> 100 µM (inactive)	> 100 µM (inactive)	> 100 µM (inactive)	> 100 µM (inactive)	> 100 µM (inactive)		> 100 µM (inactive)
Cn1c(=O)c2[nH]cnc2n(CC(=O)O)c1=O	> 100 µM (inactive)	> 100 µM (inactive)		> 100 µM (inactive)	> 100 µM (inactive)	> 100 µM (inactive)	> 100 µM (inactive)	> 100 µM (inactive)	> 100 µM (inactive)
Nc1nc(NCCO)c(N=O)c(=O)[nH]1	> 100 µM (inactive)	> 100 µM (inactive)	> 100 µM (inactive)	> 100 µM (inactive)		> 100 µM (inactive)	> 100 µM (inactive)	> 100 µM (inactive)	> 100 µM (inactive)
COC1CC(OC)C(O)C(CO)O1 (centres undefined)	> 100 µM (inactive)		> 100 µM (inactive)	> 100 µM (inactive)		> 100 µM (inactive)	> 100 µM (inactive)	> 100 µM (inactive)	> 100 µM (inactive)
CCOC(=O)c1sc2c(C(=O)OCC)n3cc(C)cc(C)c3c2c1O	> 100 µM (inactive)	37.6 µM (inactive)		> 100 µM (inactive)		> 100 µM (inactive)	> 100 µM (inactive)	> 100 µM (inactive)	
NC(=O)NNC(=O)NC12CC3CC(CC(C3)C1)C2	> 100 µM (inactive)	> 100 µM (inactive)	> 100 µM (inactive)	> 100 µM (inactive)		> 100 µM (inactive)	> 100 µM (inactive)	> 100 µM (inactive)	> 100 µM (inactive)
CCOC(=O)C12CCCC1(O)N(NC(=O)c1ccccc1)C(C)=C2C(=O)OC (centres undefined)			> 100 µM (inactive)	> 100 µM (inactive)		> 100 µM (inactive)	> 100 µM (inactive)	> 100 µM (inactive)	
CCCNC(=S)NNC(=O)CSc1nc(-c2ccccc2)c(-c2ccccc2)[nH]1	70.3 µM (inactive)	> 100 µM (inactive)		45 µM (inactive)		> 100 µM (inactive)	84.1 µM (inactive)	27.9 µM (inactive)	47.4 µM (inactive)
CC(/C=C/C(=O)c1sc(C(N)=S)nc1C)=C\c1ccccc1	21 µM (inactive)	17 µM (inactive)	> 100 µM (inactive)	> 100 µM (inactive)	40.6 µM (inactive)	> 100 µM (inactive)	80.2 µM (inactive)	> 100 µM (inactive)	> 100 µM (inactive)
COC(=O)/C=C(\C(=O)OC)c1c2c3c(cc(OC)c(OC)c3c3ccccc13)CCN2C	22.3 µM (inactive)	27.9 µM (inactive)	64.9 µM (inactive)	33 µM (inactive)	33.8 µM (inactive)	37.8 µM (inactive)	12.6 µM (inactive)	42.1 µM (inactive)	
CC1CC[P+](c2ccccc2)(c2ccccc2)CC1	> 100 µM (inactive)	50.1 µM (inactive)	> 100 µM (inactive)	27.6 µM (inactive)		> 100 µM (inactive)	89.1 µM (inactive)	31.7 µM (inactive)	25.1 µM (inactive)
CC(C)(C)/N=N/C(C)(C)N=C=O	> 100 µM (inactive)	> 100 µM (inactive)	> 100 µM (inactive)	> 100 µM (inactive)		> 100 µM (inactive)	> 100 µM (inactive)	> 100 µM (inactive)	> 100 µM (inactive)
CC/C(=N\NS(=O)(=O)c1ccccc1)c1ccccc1	> 100 µM (inactive)		> 100 µM (inactive)	> 100 µM (inactive)	> 100 µM (inactive)	> 100 µM (inactive)	> 100 µM (inactive)	> 100 µM (inactive)	> 100 µM (inactive)
COc1cc2c(oc(=O)c3c4oc([Si](C)(C)C)cc4cc(OC)c23)c2cccc(O)c12	> 100 µM (inactive)	> 100 µM (inactive)	> 100 µM (inactive)	> 100 µM (inactive)			> 100 µM (inactive)	> 100 µM (inactive)	> 100 µM (inactive)
Cc1cc(C)nc(NS(=O)(=O)c2ccc(NC(=O)c3ccc(Cl)c4c(Nc5ccc(S(=O)(=O)Nc6nc(C)cc(C)n6)cc5)c5ccccc5nc34)cc2)n1	21.9 µM (inactive)	2.87 µM (inactive)	2.32 µM (inactive)	2.91 µM (inactive)	4.29 µM (inactive)	3.71 µM (inactive)	6.43 µM (inactive)	4.69 µM (inactive)	> 100 µM (inactive)
COc1cc2[nH]c3c(c2cc1OC)CCN[C@]31CC[C@]2(CC3c4c(cc(OC)c(O)c42)CCN3C)C[C@H]1OC (some centres undefined)	24.4 µM (inactive)	17.3 µM (inactive)	18 µM (inactive)	17.9 µM (inactive)	11.7 µM (inactive)	29.1 µM (inactive)	28.1 µM (inactive)	24.5 µM (inactive)	15.6 µM (inactive)
CC(C)CC12CC3CCC(CNC1=O)C32C (centres undefined)	> 100 µM (inactive)	78 µM (inactive)	> 100 µM (inactive)	> 100 µM (inactive)		> 100 µM (inactive)		> 100 µM (inactive)	> 100 µM (inactive)
O=C1Cc2c([nH]c3ccccc23)-c2cc(Br)ccc2N1	> 100 µM (inactive)	> 100 µM (inactive)	> 100 µM (inactive)	> 100 µM (inactive)	> 100 µM (inactive)	> 100 µM (inactive)	> 100 µM (inactive)	> 100 µM (inactive)	
COC(=O)C1=CO[C@@H](C)[C@@H]2Cn3ccc4c5ccccc5nc-4c3C[C@H]12 [ALSTONINE HYDROCHLORIDE]	> 100 µM (inactive)	> 100 µM (inactive)	32.7 µM (inactive)	> 100 µM (inactive)	> 100 µM (inactive)	> 100 µM (inactive)	> 100 µM (inactive)	> 100 µM (inactive)	49.5 µM (inactive)
